Each block holds one compound with its values, some of them ahead of it.
How the values were obtained:
Rattus norvegicus [1] = experiment: Oral bioavailability in Sprague-Dawley rat at 10 mg/kg; type: ADME, organism-based; settings: in vivo
[2] = Selectivity index, ratio of CC50 for human HepG2(2.2.15) cells to IC50 for HBV early antigen secretion; type: functional
[3] = Volume of distribution at steady state in Sprague-Dawley rat at 2 mg/kg, iv; type: ADME, organism-based; design: dose 2 mg/kg, route intravenous; settings: in vivo, read-out: Vdss
Hepatitis B virus [4] = experiment: Antiviral activity against HBV assessed as inhibition of viral surface antigen secretion; type: functional, organism-based
[5] = Drug level in Sprague-Dawley rat blood at 10 mg/kg, ig after 24 hrs; type: ADME, organism-based; design: dose 10 mg/kg, route intragastric; settings: po, read-out: Drug uptake
[6] = Drug level in Sprague-Dawley rat blood at 2 mg/kg, iv after 24 hrs; type: ADME, organism-based; design: dose 2 mg/kg, route intravenous; settings: read-out: Drug uptake
[7] = Drug level in Sprague-Dawley rat blood at 2 mg/kg, iv after 1 hr; type: ADME, organism-based; design: dose 2 mg/kg, route intravenous; settings: read-out: Drug uptake
[8] = Drug level in Sprague-Dawley rat blood at 2 mg/kg, iv after 4 hrs; type: ADME, organism-based; design: dose 2 mg/kg, route intravenous; settings: read-out: Drug uptake
[9] = Drug level in Sprague-Dawley rat blood at 10 mg/kg, ig after 0.083 hrs; type: ADME, organism-based; design: dose 10 mg/kg, route intragastric; settings: po, read-out: Drug uptake
Rattus norvegicus [10] = experiment: AUC in Sprague-Dawley rat at 10 mg/kg, ig; type: ADME, organism-based, Plasma; design: dose 10 mg/kg, route intragastric; settings: in vivo, po
Rattus norvegicus [11] = experiment: Clearance in Sprague-Dawley rat at 2 mg/kg, iv; type: ADME, organism-based; design: dose 2 mg/kg, route intravenous; settings: in vivo
[12] = Drug level in Sprague-Dawley rat blood at 2 mg/kg, iv after 8 hrs; type: ADME, organism-based; design: dose 2 mg/kg, route intravenous; settings: read-out: Drug uptake
[13] = Cytotoxicity against human HepG2(2.2.15) cells; type: cell-based
[14] = Cmax in Sprague-Dawley rat at 10 mg/kg, ig; type: ADME, organism-based; design: dose 10 mg/kg, route intragastric; settings: in vivo, po
[15] = Drug level in Sprague-Dawley rat blood at 2 mg/kg, iv after 2 hrs; type: ADME, organism-based; design: dose 2 mg/kg, route intravenous; settings: read-out: Drug uptake
Hepatitis B virus [16] = experiment: Antiviral activity against HBV assessed as inhibition of viral early antigen secretion; type: functional, organism-based
[17] = Drug level in Sprague-Dawley rat blood at 10 mg/kg, ig after 8 hrs; type: ADME, organism-based; design: dose 10 mg/kg, route intragastric; settings: po, read-out: Drug uptake
Rattus norvegicus [18] = experiment: AUC in Sprague-Dawley rat at 2 mg/kg, iv; type: ADME, organism-based, Plasma; design: dose 2 mg/kg, route intravenous; settings: in vivo
[19] = Tmax in Sprague-Dawley rat at 10 mg/kg, ig; type: ADME, organism-based; design: dose 10 mg/kg, route intragastric; settings: in vivo, po
[20] = Drug level in Sprague-Dawley rat blood at 10 mg/kg, ig after 2 hrs; type: ADME, organism-based; design: dose 10 mg/kg, route intragastric; settings: po, read-out: Drug uptake
[21] = Drug level in Sprague-Dawley rat blood at 2 mg/kg, iv after 0.5 hrs; type: ADME, organism-based; design: dose 2 mg/kg, route intravenous; settings: read-out: Drug uptake
[22] = Drug level in Sprague-Dawley rat blood at 10 mg/kg, ig after 0.5 hrs; type: ADME, organism-based; design: dose 10 mg/kg, route intragastric; settings: po, read-out: Drug uptake
[23] = Half life in Sprague-Dawley rat at 2 mg/kg, iv; type: ADME, organism-based; design: dose 2 mg/kg, route intravenous; settings: in vivo
[24] = Drug level in Sprague-Dawley rat blood at 2 mg/kg, iv after 0.25 hrs; type: ADME, organism-based; design: dose 2 mg/kg, route intravenous; settings: read-out: Drug uptake
[25] = Drug level in Sprague-Dawley rat blood at 2 mg/kg, iv after 0.083 hrs; type: ADME, organism-based; design: dose 2 mg/kg, route intravenous; settings: read-out: Drug uptake
[26] = Drug level in Sprague-Dawley rat blood at 10 mg/kg, ig after 1 hr; type: ADME, organism-based; design: dose 10 mg/kg, route intragastric; settings: po, read-out: Drug uptake
[27] = Drug level in Sprague-Dawley rat blood at 10 mg/kg, ig after 0.25 hrs; type: ADME, organism-based; design: dose 10 mg/kg, route intragastric; settings: po, read-out: Drug uptake
[28] = Selectivity index, ratio of CC50 for human HepG2(2.2.15) cells to IC50 for HBV surface antigen secretion; type: functional
[29] = Initial plasma concentration n Sprague-Dawley rat at 2 mg/kg, iv; type: ADME, organism-based; design: dose 2 mg/kg, route intravenous
[30] = Drug level in Sprague-Dawley rat blood at 10 mg/kg, ig after 4 hrs; type: ADME, organism-based; design: dose 10 mg/kg, route intragastric; settings: po, read-out: Drug uptake

F (Rattus norvegicus [1]): 40.9%
Vd [3]: 5.73 L/kg
IC50 (Hepatitis B virus [4]): 4.8 µM
concentration at 24 h [5]: 0.00203 µg/mL
concentration at 24 h [6]: 0.00219 µg/mL
concentration at 1 h [7]: 0.156 µg/mL
concentration at 4 h [8]: 0.0145 µg/mL
concentration at 0.083 h [9]: 0.0086 µg/mL
AUC (Rattus norvegicus [10]): 1.04 µg·h/mL
CL (Rattus norvegicus [11]): 3.87 L/h/kg
concentration at 8 h [12]: 0.00502 µg/mL
Cmax [14]: 0.383 µg/mL
concentration at 2 h [15]: 0.0718 µg/mL
IC50 (Hepatitis B virus [16]): 11 µM
concentration at 8 h [17]: 0.00628 µg/mL
AUC (Rattus norvegicus [18]): 0.51 µg·h/mL
Tmax [19]: 1 h
concentration at 2 h [20]: 0.29 µg/mL
concentration at 0.5 h [21]: 0.246 µg/mL
concentration at 0.5 h [22]: 0.17 µg/mL
half-life [23]: 1.63 h
concentration at 0.25 h [24]: 0.363 µg/mL
concentration at 0.083 h [25]: 0.567 µg/mL
concentration at 1 h [26]: 0.383 µg/mL
concentration at 0.25 h [27]: 0.07 µg/mL
C0 [29]: 0.567 µg/mL
concentration at 4 h [30]: 0.0559 µg/mL
SMILES: CC(=O)O[C@@H](C[C@@H](C)C1=C2C[C@H](OC(C)=O)[C@H]3[C@@]4(C)CCC(=O)C(C)(C)[C@@H]4CC[C@]3(C)[C@@]2(C)CC1)[C@@H](OC(C)=O)C(C)(C)OC(C)=O
Ratio CC50/IC50 [2]: >145
CC50 [13]: > 1600 µM
Ratio CC50/IC50 [28]: >333

IC50 (Hepatitis B virus [4]): 14 µM
IC50 (Hepatitis B virus [16]): 18 µM
SMILES: CCOCC(=O)OC(C)(C)[C@H](OC(C)=O)[C@H](C[C@@H](C)C1=C2C[C@H](OC(C)=O)[C@H]3[C@@]4(C)CCC(=O)C(C)(C)[C@@H]4CC[C@]3(C)[C@@]2(C)CC1)OC(C)=O
Ratio CC50/IC50 [2]: >156
CC50 [13]: > 2800 µM
Ratio CC50/IC50 [28]: >200

— ChEMBL document CHEMBL1154649, “Anti-HBV agents. Part 3: preliminary structure-activity relationships of tetra-acylalisol A derivatives as potent hepatitis B virus inhibitors” (Bioorg Med Chem Lett, 2009)
